Experimental findings from ChEMBL document CHEMBL5291721, “A preclinical secondary pharmacology resource illuminates target-adverse drug reaction associations of marketed drugs” (Nat Commun, 2023) are described below.

The structures appear in SMILES notation. Where only a bound is given, the exact number is not on record here.

For experiment [1], the target named is T1, Endothelin-1 receptor (Homo sapiens, UniProt P25101).
T1 sequence (P25101 whole entry): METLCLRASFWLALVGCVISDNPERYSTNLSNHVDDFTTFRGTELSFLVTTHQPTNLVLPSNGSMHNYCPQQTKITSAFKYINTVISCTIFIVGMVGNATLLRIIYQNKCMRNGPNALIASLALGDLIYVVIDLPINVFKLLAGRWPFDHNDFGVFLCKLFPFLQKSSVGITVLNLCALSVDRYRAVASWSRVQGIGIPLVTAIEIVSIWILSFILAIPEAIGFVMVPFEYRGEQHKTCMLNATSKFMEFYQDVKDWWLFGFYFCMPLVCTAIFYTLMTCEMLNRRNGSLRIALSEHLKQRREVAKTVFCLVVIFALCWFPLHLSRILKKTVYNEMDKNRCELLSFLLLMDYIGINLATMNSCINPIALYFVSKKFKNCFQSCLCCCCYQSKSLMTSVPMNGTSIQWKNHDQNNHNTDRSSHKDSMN

The target of experiment [2] is T2, Gastrin/cholecystokinin type B receptor (Homo sapiens, UniProt P32239).
T2 sequence (P32239 whole entry): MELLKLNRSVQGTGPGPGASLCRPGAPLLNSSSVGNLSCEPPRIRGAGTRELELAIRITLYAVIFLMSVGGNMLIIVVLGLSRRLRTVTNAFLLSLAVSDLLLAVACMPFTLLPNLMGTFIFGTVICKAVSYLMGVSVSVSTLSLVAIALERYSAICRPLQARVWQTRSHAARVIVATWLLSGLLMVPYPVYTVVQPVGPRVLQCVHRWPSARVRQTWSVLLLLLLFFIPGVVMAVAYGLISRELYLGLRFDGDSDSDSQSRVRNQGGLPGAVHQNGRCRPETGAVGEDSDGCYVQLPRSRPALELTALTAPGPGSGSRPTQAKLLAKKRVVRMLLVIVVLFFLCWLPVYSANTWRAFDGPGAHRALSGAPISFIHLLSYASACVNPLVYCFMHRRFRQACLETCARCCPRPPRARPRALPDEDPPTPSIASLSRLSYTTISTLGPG

In experiment [3] the target is T3, Amine oxidase [flavin-containing] A (Homo sapiens, UniProt P21397).
T3 sequence (P21397 whole entry): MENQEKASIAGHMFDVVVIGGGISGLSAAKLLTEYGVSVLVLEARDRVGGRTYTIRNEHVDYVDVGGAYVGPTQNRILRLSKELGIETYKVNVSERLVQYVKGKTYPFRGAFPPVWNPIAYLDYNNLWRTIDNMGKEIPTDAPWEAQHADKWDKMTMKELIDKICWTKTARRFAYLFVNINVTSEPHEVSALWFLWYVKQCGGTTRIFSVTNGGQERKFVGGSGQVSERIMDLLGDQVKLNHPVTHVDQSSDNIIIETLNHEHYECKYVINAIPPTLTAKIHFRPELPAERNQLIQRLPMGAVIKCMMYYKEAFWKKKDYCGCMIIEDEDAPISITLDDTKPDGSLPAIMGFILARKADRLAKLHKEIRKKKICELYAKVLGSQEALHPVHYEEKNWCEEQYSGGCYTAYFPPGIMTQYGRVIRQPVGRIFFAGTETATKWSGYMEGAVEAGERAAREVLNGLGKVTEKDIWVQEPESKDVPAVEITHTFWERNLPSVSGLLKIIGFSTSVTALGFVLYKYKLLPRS
It counts as functional.

Experiment [4] deals with T4, Alpha-1A adrenergic receptor (Homo sapiens, UniProt P35348).
T4 sequence (P35348 whole entry): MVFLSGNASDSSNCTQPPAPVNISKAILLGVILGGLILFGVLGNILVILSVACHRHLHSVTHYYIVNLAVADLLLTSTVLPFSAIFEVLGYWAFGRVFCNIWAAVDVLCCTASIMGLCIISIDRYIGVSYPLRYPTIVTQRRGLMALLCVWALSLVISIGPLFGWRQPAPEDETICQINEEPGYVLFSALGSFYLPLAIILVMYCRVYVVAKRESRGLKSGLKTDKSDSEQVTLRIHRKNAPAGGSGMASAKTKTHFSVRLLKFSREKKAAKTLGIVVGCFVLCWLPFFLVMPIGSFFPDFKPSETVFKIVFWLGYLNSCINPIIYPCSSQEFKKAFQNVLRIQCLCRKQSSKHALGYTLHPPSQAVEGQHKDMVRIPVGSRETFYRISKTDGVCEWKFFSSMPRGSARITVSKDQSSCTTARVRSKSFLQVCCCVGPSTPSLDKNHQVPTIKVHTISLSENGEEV
It counts as functional, cell-based.

Experiment [5] concerns the target Cannabinoid receptor 1 (Homo sapiens, UniProt P21554). The experiment is classed as functional, cell-based.
Experiment [6] has as its target T5, Progesterone receptor (Homo sapiens, UniProt P06401).
T5 sequence (P06401 whole entry): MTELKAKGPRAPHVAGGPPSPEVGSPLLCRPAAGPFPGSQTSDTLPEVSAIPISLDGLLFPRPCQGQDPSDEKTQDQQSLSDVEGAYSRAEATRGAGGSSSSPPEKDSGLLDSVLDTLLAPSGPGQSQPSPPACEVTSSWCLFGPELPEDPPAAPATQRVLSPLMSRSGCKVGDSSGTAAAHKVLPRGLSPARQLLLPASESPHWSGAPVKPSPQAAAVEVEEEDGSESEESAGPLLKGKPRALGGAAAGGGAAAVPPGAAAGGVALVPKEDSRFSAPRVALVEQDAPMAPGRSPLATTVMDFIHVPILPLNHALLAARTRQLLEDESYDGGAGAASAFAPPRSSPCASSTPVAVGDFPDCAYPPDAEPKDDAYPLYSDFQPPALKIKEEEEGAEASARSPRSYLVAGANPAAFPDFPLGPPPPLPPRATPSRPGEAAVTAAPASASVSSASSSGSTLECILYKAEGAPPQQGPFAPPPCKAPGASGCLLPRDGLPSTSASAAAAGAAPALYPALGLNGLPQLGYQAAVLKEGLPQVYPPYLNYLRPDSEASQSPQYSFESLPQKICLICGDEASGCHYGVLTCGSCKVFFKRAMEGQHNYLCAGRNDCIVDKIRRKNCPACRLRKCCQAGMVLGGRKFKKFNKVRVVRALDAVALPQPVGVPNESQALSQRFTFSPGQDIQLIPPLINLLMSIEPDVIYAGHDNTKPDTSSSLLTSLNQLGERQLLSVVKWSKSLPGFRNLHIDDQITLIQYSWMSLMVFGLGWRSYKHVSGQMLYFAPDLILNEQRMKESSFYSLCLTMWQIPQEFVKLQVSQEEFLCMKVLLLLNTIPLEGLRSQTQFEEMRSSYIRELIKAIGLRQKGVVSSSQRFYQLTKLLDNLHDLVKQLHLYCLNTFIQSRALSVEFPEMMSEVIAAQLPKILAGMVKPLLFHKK
It counts as functional.

Experiment [7] deals with 5-hydroxytryptamine receptor 2A (Homo sapiens, UniProt P28223). The experiment is classed as functional, cell-based.
Also: assay procedure not described here.

Chain of 5-hydroxytryptamine receptor 2A (P28223 whole entry): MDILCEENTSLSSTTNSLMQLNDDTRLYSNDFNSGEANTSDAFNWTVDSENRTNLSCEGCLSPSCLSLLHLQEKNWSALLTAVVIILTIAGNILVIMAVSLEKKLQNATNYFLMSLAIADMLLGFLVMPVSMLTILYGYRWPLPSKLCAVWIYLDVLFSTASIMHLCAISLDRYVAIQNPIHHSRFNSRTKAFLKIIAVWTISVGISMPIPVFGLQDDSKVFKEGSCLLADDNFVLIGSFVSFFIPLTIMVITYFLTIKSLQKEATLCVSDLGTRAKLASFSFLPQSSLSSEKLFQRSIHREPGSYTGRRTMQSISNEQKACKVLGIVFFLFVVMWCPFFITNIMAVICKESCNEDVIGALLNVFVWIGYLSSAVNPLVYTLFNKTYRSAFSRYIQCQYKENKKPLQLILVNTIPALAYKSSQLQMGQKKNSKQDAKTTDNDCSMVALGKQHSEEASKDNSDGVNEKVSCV
Chain of Cannabinoid receptor 1 (P21554 whole entry): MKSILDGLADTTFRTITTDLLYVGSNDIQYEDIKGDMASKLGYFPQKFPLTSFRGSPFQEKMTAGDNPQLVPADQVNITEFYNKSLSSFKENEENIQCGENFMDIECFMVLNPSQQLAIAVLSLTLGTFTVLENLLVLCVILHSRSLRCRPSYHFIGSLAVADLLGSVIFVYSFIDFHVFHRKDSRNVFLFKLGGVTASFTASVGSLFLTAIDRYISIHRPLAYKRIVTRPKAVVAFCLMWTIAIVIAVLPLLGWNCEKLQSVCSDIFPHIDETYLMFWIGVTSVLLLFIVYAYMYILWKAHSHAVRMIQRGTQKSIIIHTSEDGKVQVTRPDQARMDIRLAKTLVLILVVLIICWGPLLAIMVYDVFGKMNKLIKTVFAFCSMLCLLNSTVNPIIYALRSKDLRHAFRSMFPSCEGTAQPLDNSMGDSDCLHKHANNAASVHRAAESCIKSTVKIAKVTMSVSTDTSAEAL

For `CNS(=O)(=O)Cc1ccc2[nH]cc(CCN(C)C)c2c1`, the AC50 in experiment [1], in experiment [2], in experiment [3], in experiment [4] and in experiment [5] was over 30 µM throughout.
Consider `CC=CC(=O)N(CC)c1ccccc1C`, for which the AC50 (as a rule, the midpoint of the concentration-response curve, whichever way the signal moves) in experiment [3] was over 10 µM; in experiment [6] it was over 10 µM; in experiment [4], over 30 µM; in experiment [5] it was over 30 µM.
Regarding `NCC[C@H](O)C(=O)N[C@@H]1C[C@H](N)[C@@H](O[C@H]2O[C@H](CN)[C@@H](O)[C@H](O)[C@H]2O)[C@H](O)[C@H]1O[C@H]1O[C@H](CO)[C@@H](O)[C@H](N)[C@H]1O` [AMIKACIN], the AC50 in experiment [3] and in experiment [6] was over 10 µM each time.
`CC(C[N+](C)(C)C)OC(N)=O` (stereo not given) [BETHANECHOL]: the AC50 in experiment [7] is over 10 µM; in experiment [3], over 10 µM; in experiment [6] it was over 10 µM; in experiment [5], over 30 µM.
With `COc1ccc2c3c1O[C@H]1[C@@H](O)C=C[C@H]4[C@@H](C2)N(C)CC[C@@]341` [CODEINE], the AC50 in experiment [1] is over 30 µM; in experiment [2], over 30 µM; in experiment [3], over 10 µM; in experiment [4], over 30 µM; in experiment [5], over 30 µM.
Consider `C#C[C@]1(O)CC[C@H]2[C@@H]3CCC4=Cc5oncc5C[C@]4(C)[C@H]3CC[C@@]21C` [DANAZOL], for which the AC50 in experiment [3] is over 10 µM; in experiment [6] it was 0.019 µM; in experiment [4], over 30 µM; in experiment [5], over 30 µM.
As to `CC1(C)O[C@@H]2C[C@H]3[C@@H]4CCC5=CC(=O)C=C[C@]5(C)[C@H]4[C@@H](O)C[C@]3(C)[C@]2(C(=O)CO)O1` [DESONIDE], the concentration at half-maximal activity (AC50) in experiment [7] is over 10 µM; in experiment [3], over 10 µM; in experiment [6] it was 0.065 µM; in experiment [4] it was over 30 µM; in experiment [5] it was over 30 µM.
As to `CCc1c(Cl)c(O)c(Cl)c(O)c1C(=O)O[C@H]1[C@H](O)[C@H](OC)[C@H](OC/C2=C\C=C\C[C@H](O)/C(C)=C/[C@H](CC)[C@@H](O[C@@H]3OC(C)(C)[C@@H](OC(=O)C(C)C)[C@H](O)[C@@H]3O)/C(C)=C/C(C)=C/C[C@@H]([C@@H](C)O)OC2=O)O[C@@H]1C` [FIDAXOMICIN], the concentration at half-maximal activity (AC50) is 18 µM in experiment [7]; over 30 µM in experiment [1]; 7.9 µM in experiment [2]; over 30 µM in experiment [3]; over 30 µM in experiment [6].
Consider `CCCC(=O)O[C@]1(C(=O)CO)CC[C@H]2[C@@H]3CCC4=CC(=O)CC[C@]4(C)[C@H]3[C@@H](O)C[C@@]21C` [HYDROCORTISONE BUTYRATE], for which the values for the AC50 in experiment [7], in experiment [3] and in experiment [6] were over 10 µM, over 10 µM and 0.042 µM, respectively.
Consider `CC(C)Cn1cnc2c(N)nc3ccccc3c21` [IMIQUIMOD], for which the AC50 in experiment [3] and in experiment [6] was over 10 µM each time.
For the compound `CNC(C)CCC=C(C)C` (stereo not given) [ISOMETHEPTENE], the AC50 in experiment [1], in experiment [2] and in experiment [6] was over 30 µM throughout.
`CC(C)(C)c1cc(C(C)(C)C)c(NC(=O)c2c[nH]c3ccccc3c2=O)cc1O` [IVACAFTOR]: the concentration at half-maximal activity (AC50) is over 30 µM in experiment [2] and over 10 µM in experiment [3].
Regarding `O=C(O)[C@H](CC(=O)N1C[C@H]2CCCC[C@H]2C1)Cc1ccccc1` [MITIGLINIDE], the AC50 in experiment [7], in experiment [3] and in experiment [6] was over 10 µM throughout.
As to `CCCc1nc(C(C)(C)O)c(C(=O)OCc2oc(=O)oc2C)n1Cc1ccc(-c2ccccc2-c2nnn[nH]2)cc1` [OLMESARTAN MEDOXOMIL], the AC50 in experiment [1] was over 50 µM; in experiment [2], over 50 µM; in experiment [3], over 10 µM; in experiment [4] it was over 30 µM; in experiment [5], over 30 µM.
For `N#Cc1ccc([C@H]2CCc3cncn32)c(F)c1` [OSILODROSTAT], the AC50 in experiment [1] and in experiment [2] was over 10 µM each time.
Regarding `CC[C@@H]1C(=O)OC[C@@H]1Cc1cncn1C` [PILOCARPINE], the AC50 is over 30 µM in experiment [7]; over 30 µM in experiment [2]; over 10 µM in experiment [3]; over 30 µM in experiment [4]; over 30 µM in experiment [5].
Take `O=C(O)C[C@H](O)C[C@H](O)/C=C/c1c(C2CC2)nc2ccccc2c1-c1ccc(F)cc1` [PITAVASTATIN]: the AC50 in experiment [7], in experiment [3], in experiment [6] and in experiment [4] was over 30 µM each time.
Turning to `CN1CCC(=C2c3ccccc3CCc3sccc32)CC1` [PIZOTYLINE], the AC50 in experiment [7] is 0.0379 µM; in experiment [2] it was over 30 µM; in experiment [3], over 10 µM; in experiment [4], over 30 µM; in experiment [5], over 30 µM.
On to `C=CCC1(C(C)CC)C(=O)NC(=O)NC1=O` (stereo not given) [TALBUTAL], for which the AC50 in experiment [7], in experiment [3] and in experiment [6] was over 10 µM in each case.
Take `C/C(O)=C(\C#N)C(=O)Nc1ccc(C(F)(F)F)cc1` [TERIFLUNOMIDE]: the AC50 is 28 µM in experiment [7]; over 30 µM in experiment [1]; 4.9 µM in experiment [3]; over 30 µM in experiment [6]; over 30 µM in experiment [4]; over 30 µM in experiment [5].
As for `CN1CCN(CC/C=C2/c3ccccc3Sc3ccc(S(=O)(=O)N(C)C)cc32)CC1` [THIOTHIXENE], the AC50 was over 30 µM in experiment [1]; over 30 µM in experiment [2]; over 10 µM in experiment [3]; over 30 µM in experiment [4]; over 30 µM in experiment [5].
Turning to `CN1C(=O)OC(C)(C)C1=O` [TRIMETHADIONE], the figures for the AC50 in experiment [3], in experiment [6] and in experiment [5] were over 10 µM, over 10 µM and over 30 µM, respectively.
